According to patent publication US11434242B2, “Dopamine-b-hydroxylase inhibitors” (BIAL-PORTELA & Cª, S.A., priority 2017, dated 2022):

Biological target: T1, Dopamine beta hydroxylase (Homo sapiens, UniProt P09172)
T1 construct: 125 μl of plasma; tissue Instituto Português do Sangue Transplantação; host or cells: human plasma from healthy donors
T1 sequence (P09172 40-617 limits assumed): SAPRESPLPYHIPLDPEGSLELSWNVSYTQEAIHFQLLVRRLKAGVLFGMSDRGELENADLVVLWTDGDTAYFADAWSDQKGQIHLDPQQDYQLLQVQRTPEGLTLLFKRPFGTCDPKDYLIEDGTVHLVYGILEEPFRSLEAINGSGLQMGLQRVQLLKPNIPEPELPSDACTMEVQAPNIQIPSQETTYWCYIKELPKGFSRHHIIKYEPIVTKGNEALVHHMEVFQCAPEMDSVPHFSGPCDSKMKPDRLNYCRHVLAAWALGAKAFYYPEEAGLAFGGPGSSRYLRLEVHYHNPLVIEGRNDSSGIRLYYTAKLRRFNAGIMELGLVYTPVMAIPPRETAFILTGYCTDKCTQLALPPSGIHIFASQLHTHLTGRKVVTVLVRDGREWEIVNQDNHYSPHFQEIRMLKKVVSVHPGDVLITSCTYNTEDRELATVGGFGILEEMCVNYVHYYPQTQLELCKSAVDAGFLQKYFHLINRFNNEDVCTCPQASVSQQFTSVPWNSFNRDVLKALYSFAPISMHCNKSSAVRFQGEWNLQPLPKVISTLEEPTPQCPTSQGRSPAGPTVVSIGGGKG
Test: Dopamine beta hydroxylase activity in human plasma
Assay type: biochemical
Details: for Plasma (0.01 μM), activity in % of control: inhibitor 0.01 μM; for Plasma (0.1 μM), activity in % of control: inhibitor 0.1 μM
Summary of the method: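 Octopamine production from tyramine over 45 min at 37° C, measured photometrically at 330 nm after SCX extraction and periodate oxidation against an octopamine standard curve, indicates plasma DβH activity. Compounds tested at final 10, 100 and 1000 nM in human plasma, pH 5.0 cofactor buffer, 10 min preincubation; results as % of control.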

Structure (SMILES)	Plasma (0.01 μM), activity in % of control	Plasma (0.1 μM), activity in % of control
Cn1c(CC(=O)NC2COC2)c2n(c1=S)C[C@H](c1c(F)ccc(Cl)c1F)C2 [Example 333, (S)-2-(6-(3-chloro-2,6-difluorophenyl)-2-methyl-3-thioxo-2,5,6,7-tetrahydro-3H-pyrrolo[1,2-c]imidazol-1-yl)-N-(oxetan-3-yl)acetamide]	47.5 % of control	11.7 % of control
Cl.Cn1c(CCNCC(F)(F)F)c2n(c1=S)C[C@@]1(c3cc(Br)ccc3F)C[C@@H]21 [Example 334, (5aS,6aR)-5a-(5-bromo-2-fluorophenyl)-2-methyl-1-(2-((2,2,2-trifluoroethyl)amino)ethyl)-5,5a,6,6a-tetrahydrocyclopropa[3,4]pyrrolo[1,2-c]imidazole-3(2H)-thione Hydrochloride]	80.3 % of control	41.9 % of control
Cl.Cn1c(CC(=O)NCc2cnccn2)c2n(c1=S)C[C@@]1(c3cc(Cl)ccc3F)C[C@@H]21 [Example 335, 2-((5aS,6aR)-5a-(5-chloro-2-fluorophenyl)-2-methyl-3-thioxo-2,3,5,5a,6,6a-hexahydrocyclopropa[3,4]pyrrolo[1,2-c]imidazol-1-yl)-N-(pyrazin-2-ylmethyl)acetamide Hydrochloride]	44.9 % of control	8.7 % of control
Cn1c(CC(=O)NC[C@@H]2CCCO2)c2n(c1=S)C[C@H](c1c(F)ccc(Cl)c1F)C2 [Example 336, 2-((S)-6-(3-chloro-2,6-difluorophenyl)-2-methyl-3-thioxo-2,5,6,7-tetrahydro-3H-pyrrolo[1,2-c]imidazol-1-yl)-N—(((S)-tetrahydrofuran-2-yl)methyl)acetamide]	50.0 % of control	9.4 % of control
Cn1c(CC(=O)NC[C@H]2CCCO2)c2n(c1=S)C[C@H](c1c(F)ccc(Cl)c1F)C2 [Example 337, 2-((S)-6-(3-chloro-2,6-difluorophenyl)-2-methyl-3-thioxo-2,5,6,7-tetrahydro-3H-pyrrolo[1,2-c]imidazol-1-yl)-N—(((R)-tetrahydrofuran-2-yl)methyl)acetamide]	48.2 % of control	9.4 % of control
Cn1cc(CNC(=O)Cc2c3n(c(=S)n2C)C[C@H](c2c(F)ccc(Cl)c2F)C3)cn1 [Example 338, (S)-2-(6-(3-chloro-2,6-difluorophenyl)-2-methyl-3-thioxo-2,5,6,7-tetrahydro-3H-pyrrolo[1,2-c]imidazol-1-yl)-N-((1-methyl-1H-pyrazol-4-yl)methyl)acetamide]	36.4 % of control	6.2 % of control
Cn1cc(CNC(=O)Cc2c3n(c(=S)n2C)C[C@@]2(c4cc(Cl)ccc4F)C[C@@H]32)cn1 [Example 339, 2-((5aS,6aR)-5a-(5-chloro-2-fluorophenyl)-2-methyl-3-thioxo-2,3,5,5a,6,6a-hexahydrocyclopropa[3,4]pyrrolo[1,2-c]imidazol-1-yl)-N-((1-methyl-1H-pyrazol-4-yl)methyl)acetamide]	42.3 % of control	4.3 % of control
Cn1c(CC(=O)Nc2nccs2)c2n(c1=S)C[C@@H](c1c(F)c(F)cc(F)c1F)C2 [Example 340, (R)-2-(2-methyl-6-(2,3,5,6-tetrafluorophenyl)-3-thioxo-2,5,6,7-tetrahydro-3H-pyrrolo[1,2-c]imidazol-1-yl)-N-(thiazol-2-yl)acetamide]	87.6 % of control	27.0 % of control
Cl.Cn1c(CCNC2CCCCC2)c2n(c1=S)C[C@@]1(c3cc(Br)ccc3F)C[C@@H]21 [Example 341, (5aS,6aR)-5a-(5-bromo-2-fluorophenyl)-1-(2-(cyclohexylamino)ethyl)-2-methyl-5,5a,6,6a-tetrahydrocyclopropa[3,4]pyrrolo[1,2-c]imidazole-3(2H)-thione hydrochloride]	91.1 % of control	33.6 % of control
Cn1c(CC(=O)N[C@@H]2CCNC2=O)c2n(c1=S)C[C@H](c1c(F)ccc(Br)c1F)C2 [Example 342, 2-((S)-6-(3-bromo-2,6-difluorophenyl)-2-methyl-3-thioxo-2,5,6,7-tetrahydro-3H-pyrrolo[1,2-c]imidazol-1-yl)-N—((R)-2-oxopyrrolidin-3-yl)acetamide]	66.6 % of control	16.5 % of control
Cl.Cn1c(CCNCc2ccccn2)c2n(c1=S)C[C@@]1(c3cc(Cl)ccc3F)C[C@@H]21 [Example 343, (5aS,6aR)-5a-(5-chloro-2-fluorophenyl)-2-methyl-1-(2-((pyridin-2-ylmethyl)amino)ethyl)-5,5a,6,6a-tetrahydrocyclopropa[3,4]pyrrolo[1,2-c]imidazole-3(2H)-thione Hydrochloride]	94.9 % of control	59.5 % of control
Cn1c(CC(=O)N2CCC[C@@H]2C(F)(F)F)c2n(c1=S)C[C@@H](c1c(F)ccc(F)c1F)C2 [Example 344, 2-((R)-2-methyl-3-thioxo-6-(2,3,6-trifluorophenyl)-2,5,6,7-tetrahydro-3H-pyrrolo[1,2-c]imidazol-1-yl)-1-((R)-2-(trifluoromethyl)pyrrolidin-1-yl)ethan-1-one]	88.2 % of control	73.7 % of control
Cn1c(CC(=O)NC2CCCC2C#N)c2n(c1=S)C[C@@H](c1c(F)ccc(F)c1F)C2 (stereo partly drawn) [Example 345, N-(2-cyanocyclopentyl)-2-((R)-2-methyl-3-thioxo-6-(2,3,6-trifluorophenyl)-2,5,6,7-tetrahydro-3H-pyrrolo[1,2-c]imidazol-1-yl)acetamide]	77.2 % of control	40.3 % of control
Cl.Cn1cc(CNCCc2c3n(c(=S)n2C)C[C@@]2(c4cc(Cl)ccc4F)C[C@@H]32)cn1 [Example 346, (5aS,6aR)-5a-(5-chloro-2-fluorophenyl)-2-methyl-1-(2-(((1-methyl-1H-pyrazol-4-yl)methyl)amino)ethyl)-5,5a,6,6a-tetrahydrocyclopropa[3,4]pyrrolo[1,2-c]imidazole-3(2H)-thione Hydrochloride]	109.6 % of control	74.9 % of control
Cn1c(CC(=O)Nc2cnoc2)c2n(c1=S)C[C@@H](c1c(F)ccc(F)c1F)C2 [Example 347, (R)—N-(isoxazol-4-yl)-2-(2-methyl-3-thioxo-6-(2,3,6-trifluorophenyl)-2,5,6,7-tetrahydro-3H-pyrrolo[1,2-c]imidazol-1-yl)acetamide]	79.0 % of control	17.7 % of control
Cn1c(CC(=O)N2CC[C@H](C#N)C2)c2n(c1=S)C[C@@H](c1c(F)ccc(F)c1F)C2 [Example 348, (S)-1-(2-((R)-2-methyl-3-thioxo-6-(2,3,6-trifluorophenyl)-2,5,6,7-tetrahydro-3H-pyrrolo[1,2-c]imidazol-1-yl)acetyl)pyrrolidine-3-carbonitrile]	92.4 % of control	44.8 % of control
Cc1nnc(NC(=O)Cc2c3n(c(=S)n2C)C[C@H](c2c(F)ccc(Cl)c2F)C3)o1 [Example 349, (S)-2-(6-(3-chloro-2,6-difluorophenyl)-2-methyl-3-thioxo-2,5,6,7-tetrahydro-3H-pyrrolo[1,2-c]imidazol-1-yl)-N-(5-methyl-1,3,4-oxadiazol-2-yl)acetamide]	72.3 % of control	12.5 % of control
Cn1cc(NC(=O)Cc2c3n(c(=S)n2C)C[C@H](c2c(F)ccc(Cl)c2F)C3)cn1 [Example 350, (S)-2-(6-(3-chloro-2,6-difluorophenyl)-2-methyl-3-thioxo-2,5,6,7-tetrahydro-3H-pyrrolo[1,2-c]imidazol-1-yl)-N-(1-methyl-1H-pyrazol-4-yl)acetamide]	85.7 % of control	28.2 % of control
Cn1c(CC(=O)Nc2cnsc2)c2n(c1=S)C[C@@H](c1c(F)ccc(F)c1F)C2 [Example 351, (R)—N-(isothiazol-4-yl)-2-(2-methyl-3-thioxo-6-(2,3,6-trifluorophenyl)-2,5,6,7-tetrahydro-3H-pyrrolo[1,2-c]imidazol-1-yl)acetamide]	46.2 % of control	16.5 % of control
Cn1c(CC(=O)NCC2CCOCC2)c2n(c1=S)C[C@H](c1c(F)ccc(Cl)c1F)C2 [Example 352, (S)-2-(6-(3-chloro-2,6-difluorophenyl)-2-methyl-3-thioxo-2,5,6,7-tetrahydro-3H-pyrrolo[1,2-c]imidazol-1-yl)-N-((tetrahydro-2H-pyran-4-yl)methyl)acetamide]	40.8 % of control	10.9 % of control
